Tests used:
Assay type in all cases: functional
MDA-MB-231 = assay: Growth inhibition of human MDA-MB-231 cells measured after 48 hrs by SRB assay
A549 = assay: Growth inhibition of human A549 cells measured after 48 hrs by SRB assay
UACC-257 = assay: Growth inhibition of human UACC-257 cells measured after 48 hrs by SRB assay
HOP-92 = assay: Growth inhibition of human HOP-92 cells measured after 48 hrs by SRB assay
UO-31 = assay: Growth inhibition of human UO-31 cells measured after 48 hrs by SRB assay
KM12 = assay: Growth inhibition of human KM12 cells measured after 48 hrs by SRB assay
SN12C = assay: Growth inhibition of human SN12C cells measured after 48 hrs by SRB assay
NCI-H460 = assay: Growth inhibition of human NCI-H460 cells measured after 48 hrs by SRB assay
CAKI-1 = assay: Growth inhibition of human CAKI-1 cells measured after 48 hrs by SRB assay
NCI-H226 = assay: Growth inhibition of human NCI-H226 cells measured after 48 hrs by SRB assay
HT-29 = assay: Growth inhibition of human HT-29 cells measured after 48 hrs by SRB assay
NCI-H522 = assay: Growth inhibition of human NCI-H522 cells measured after 48 hrs by SRB assay
SW-620 = assay: Growth inhibition of human SW-620 cells measured after 48 hrs by SRB assay
COLO 205 = assay: Growth inhibition of human COLO 205 cells measured after 48 hrs by SRB assay
SK-MEL-28 = assay: Growth inhibition of human SK-MEL-28 cells measured after 48 hrs by SRB assay
U-251 = assay: Growth inhibition of human U-251 cells measured after 48 hrs by SRB assay
OVCAR-3 = assay: Growth inhibition of human OVCAR-3 cells measured after 48 hrs by SRB assay
HCC 2998 = assay: Growth inhibition of human HCC 2998 cells measured after 48 hrs by SRB assay
OVCAR-5 = assay: Growth inhibition of human OVCAR-5 cells measured after 48 hrs by SRB assay
CCRF-CEM = assay: Growth inhibition of human CCRF-CEM cells measured after 48 hrs by SRB assay
MDA-MB-435 = assay: Growth inhibition of human MDA-MB-435 cells measured after 48 hrs by SRB assay
MDA-MB-468 = assay: Growth inhibition of human MDA-MB-468 cells measured after 48 hrs by SRB assay
OVCAR-8 = assay: Growth inhibition of human OVCAR-8 cells measured after 48 hrs by SRB assay
Hs-578T = assay: Growth inhibition of human Hs-578T cells measured after 48 hrs by SRB assay
NCI/ADR-RES = assay: Growth inhibition of human NCI/ADR-RES cells measured after 48 hrs by SRB assay
ACHN = assay: Growth inhibition of human ACHN cells measured after 48 hrs by SRB assay
MOLT-4 = assay: Growth inhibition of human MOLT-4 cells measured after 48 hrs by SRB assay
DU-145 = assay: Growth inhibition of human DU-145 cells measured after 48 hrs by SRB assay
NCI-H322M = assay: Growth inhibition of human NCI-H322M cells measured after 48 hrs by SRB assay
UACC-62 = assay: Growth inhibition of human UACC-62 cells measured after 48 hrs by SRB assay
HCT-15 = assay: Growth inhibition of human HCT-15 cells measured after 48 hrs by SRB assay
HCT-116 = assay: Growth inhibition of human HCT-116 cells measured after 48 hrs by SRB assay
786-0 = assay: Growth inhibition of human 786-0 cells measured after 48 hrs by SRB assay
HL-60 = assay: Growth inhibition of human HL-60 cells measured after 48 hrs by SRB assay
SK-MEL-5 = assay: Growth inhibition of human SK-MEL-5 cells measured after 48 hrs by SRB assay
PC-3 = assay: Growth inhibition of human PC-3 cells measured after 48 hrs by SRB assay
HOP-62 = assay: Growth inhibition of human HOP-62 cells measured after 48 hrs by SRB assay
M14 = assay: Growth inhibition of human M14 cells measured after 48 hrs by SRB assay
SNB-75 = assay: Growth inhibition of human SNB-75 cells measured after 48 hrs by SRB assay
Malme-3M = assay: Growth inhibition of human Malme-3M cells measured after 48 hrs by SRB assay
SK-MEL-2 = assay: Growth inhibition of human SK-MEL-2 cells measured after 48 hrs by SRB assay
SF-539 = assay: Growth inhibition of human SF-539 cells measured after 48 hrs by SRB assay
SK-OV-3 = assay: Growth inhibition of human SK-OV-3 cells measured after 48 hrs by SRB assay
RXF 393 = assay: Growth inhibition of human RXF 393 cells measured after 48 hrs by SRB assay
IGROV-1 = assay: Growth inhibition of human IGROV-1 cells measured after 48 hrs by SRB assay
NCI-H23 = assay: Growth inhibition of human NCI-H23 cells measured after 48 hrs by SRB assay
SF-268 = assay: Growth inhibition of human SF-268 cells measured after 48 hrs by SRB assay
SF-295 = assay: Growth inhibition of human SF-295 cells measured after 48 hrs by SRB assay
SNB-19 = assay: Growth inhibition of human SNB-19 cells measured after 48 hrs by SRB assay
T47D = assay: Growth inhibition of human T47D cells measured after 48 hrs by SRB assay
TK-10 = assay: Growth inhibition of human TK-10 cells measured after 48 hrs by SRB assay
LOX IMVI = assay: Growth inhibition of human LOX IMVI cells measured after 48 hrs by SRB assay
BT-549 = assay: Growth inhibition of human BT-549 cells measured after 48 hrs by SRB assay
SR = assay: Growth inhibition of human SR cells measured after 48 hrs by SRB assay
K562 = assay: Growth inhibition of human K562 cells measured after 48 hrs by SRB assay
A498 = assay: Growth inhibition of human A498 cells measured after 48 hrs by SRB assay
MCF7 = assay: Growth inhibition of human MCF7 cells measured after 48 hrs by SRB assay

## C[C@]12CC[C@H](O[C@@H]3O[C@H](CO)[C@@H](O)[C@H](O)[C@H]3O)C=C1CC[C@@H]1[C@@H]2[C@@H](O)C[C@]2(C)[C@@H](c3ccc(=O)oc3)CC[C@]12O
MDA-MB-231
  GI50: 193 nM
A549
  GI50: 15 nM
UACC-257
  GI50: 93 nM
HOP-92
  GI50: 66 nM
UO-31
  GI50: 34 nM
KM12
  GI50: 91 nM
SN12C
  GI50: 15 nM
NCI-H460
  GI50: 13 nM
CAKI-1
  GI50: 41 nM
NCI-H226
  GI50: 47 nM
HT-29
  GI50: 81 nM
NCI-H522
  GI50: 9 nM
SW-620
  GI50: 51 nM
COLO 205
  GI50: 102 nM
SK-MEL-28
  GI50: 107 nM
U-251
  GI50: 79 nM
OVCAR-3
  GI50: 36 nM
HCC 2998
  GI50: 136 nM
OVCAR-5
  GI50: 60 nM
CCRF-CEM
  GI50: 16 nM
MDA-MB-435
  GI50: 73 nM
MDA-MB-468
  GI50: 109 nM
OVCAR-8
  GI50: 65 nM
Hs-578T
  GI50: 25 nM
NCI/ADR-RES
  GI50: 33 nM
ACHN
  GI50: 10 nM
MOLT-4
  GI50: 11 nM
DU-145
  GI50: 31 nM
NCI-H322M
  GI50: 30 nM
UACC-62
  GI50: 7 nM
HCT-15
  GI50: 53 nM
HCT-116
  GI50: 15 nM
786-0
  GI50: 38 nM
HL-60
  GI50: 50 nM
SK-MEL-5
  GI50: 55 nM
PC-3
  GI50: 46 nM
HOP-62
  GI50: 26 nM
M14
  GI50: 83 nM
SNB-75
  GI50: 82 nM
Malme-3M
  GI50: 63 nM
SK-MEL-2
  GI50: 59 nM
SF-539
  GI50: 31 nM
SK-OV-3
  GI50: 74 nM
RXF 393
  GI50: 20 nM
IGROV-1
  GI50: 64 nM
NCI-H23
  GI50: 27 nM
SF-268
  GI50: 18 nM
SF-295
  GI50: 61 nM
SNB-19
  GI50: 108 nM
T47D
  GI50: 78 nM
TK-10
  GI50: 31 nM
LOX IMVI
  GI50: 64 nM
BT-549
  GI50: 27 nM
SR
  GI50: 55 nM
K562
  GI50: 80 nM
A498
  GI50: 38 nM
MCF7
  GI50: 42 nM

Source: ChEMBL document CHEMBL4837183, “Antiproliferative Bufadienolides from the Bulbs of Drimia altissima” (2021)
